± gives the expanded uncertainty stated by the source.
Experiment: xn = mol fraction of the nth substance listed
Settings: 101 kPa, Liquid

ClC(Cl)Cl [trichloromethane] + CCC(C)O
mass density [kg/m3]
Settings | 288.15 K | 293.15 K | 298.15 K | 303.15 K | 308.15 K | 313.15 K
x2 = 0 | 1498.08 ± 0.92 | 1488.64 ± 0.91 | 1479.15 ± 0.89 | 1469.61 ± 0.88 | 1460.03 ± 0.86 | 1450.41 ± 0.85
x2 = 0.0514 | 1455.49 ± 0.88 | 1446.33 ± 0.86 | 1437.12 ± 0.85 | 1427.86 ± 0.83 | 1418.55 ± 0.82 | 1409.22 ± 0.8
x2 = 0.1045 | 1413.17 ± 0.82 | 1404.26 ± 0.8 | 1395.31 ± 0.79 | 1386.31 ± 0.77 | 1377.26 ± 0.76 | 1368.2 ± 0.75
x2 = 0.1518 | 1376.62 ± 0.77 | 1367.94 ± 0.75 | 1359.22 ± 0.74 | 1350.44 ± 0.72 | 1341.17 ± 0.71 | 1332.78 ± 0.7
x2 = 0.1962 | 1342.92 ± 0.72 | 1334.49 ± 0.71 | 1326.01 ± 0.69 | 1317.48 ± 0.68 | 1308.89 ± 0.67 | 1300.27 ± 0.65
x2 = 0.2512 | 1302.06 ± 0.67 | 1293.92 ± 0.65 | 1285.73 ± 0.64 | 1277.49 ± 0.63 | 1269.19 ± 0.61 | 1260.86 ± 0.6
x2 = 0.2998 | 1266.64 ± 0.62 | 1258.77 ± 0.61 | 1250.84 ± 0.59 | 1242.86 ± 0.58 | 1234.82 ± 0.57 | 1226.74 ± 0.55
x2 = 0.3507 | 1230.33 ± 0.57 | 1222.74 ± 0.56 | 1215.09 ± 0.55 | 1207.39 ± 0.53 | 1199.64 ± 0.52 | 1191.86 ± 0.51
x2 = 0.3995 | 1196.11 ± 0.53 | 1188.78 ± 0.51 | 1181.4 ± 0.5 | 1173.96 ± 0.49 | 1166.47 ± 0.48 | 1158.94 ± 0.46
x2 = 0.4502 | 1161.11 ± 0.48 | 1154.06 ± 0.47 | 1146.95 ± 0.46 | 1139.78 ± 0.44 | 1132.56 ± 0.43 | 1125.28 ± 0.42
x2 = 0.4978 | 1128.73 ± 0.44 | 1121.94 ± 0.42 | 1115.08 ± 0.41 | 1108.17 ± 0.4 | 1101.2 ± 0.39 | 1094.2 ± 0.38
x2 = 0.546 | 1096.47 ± 0.39 | 1089.93 ± 0.38 | 1083.34 ± 0.37 | 1076.68 ± 0.36 | 1069.96 ± 0.35 | 1063.21 ± 0.34
x2 = 0.6008 | 1060.39 ± 0.35 | 1054.14 ± 0.34 | 1047.83 ± 0.33 | 1041.47 ± 0.31 | 1035.03 ± 0.3 | 1028.55 ± 0.29
x2 = 0.6498 | 1028.63 ± 0.31 | 1022.64 ± 0.3 | 1016.59 ± 0.29 | 1010.48 ± 0.27 | 1004.3 ± 0.26 | 998.07 ± 0.26
x2 = 0.7008 | 995.87 ± 0.27 | 990.15 ± 0.28 | 984.37 ± 0.29 | 978.52 ± 0.29 | 972.61 ± 0.3 | 966.65 ± 0.31
x2 = 0.7446 | 968.17 ± 0.32 | 962.68 ± 0.32 | 957.13 ± 0.33 | 951.51 ± 0.34 | 945.82 ± 0.34 | 940.07 ± 0.35
x2 = 0.7984 | 934.4 ± 0.37 | 929.2 ± 0.38 | 923.93 ± 0.38 | 918.6 ± 0.39 | 913.19 ± 0.39 | 907.74 ± 0.4
x2 = 0.8507 | 901.92 ± 0.42 | 897 ± 0.43 | 892.02 ± 0.43 | 886.97 ± 0.44 | 881.84 ± 0.44 | 876.65 ± 0.45
x2 = 0.9 | 871.62 ± 0.47 | 866.99 ± 0.47 | 862.29 ± 0.48 | 857.51 ± 0.48 | 852.65 ± 0.49 | 847.72 ± 0.5
x2 = 0.9486 | 841.91 ± 0.51 | 837.56 ± 0.52 | 833.14 ± 0.52 | 828.64 ± 0.53 | 824.05 ± 0.54 | 819.39 ± 0.54
